US8771652B2, “Methods of blocking ultraviolet radiation and promoting skin growth using terpenes and terpenoids” (New York University, priority 2009, dated 2014)
Read-outs that look alike come from different tables or passages of the source.

Experiments:
[1] = tested on: human transplanted pancreatic adenocarcinomas; details: in vivo; cited from earlier work
[2] = tested on: breast cancer; details: rats, without any evidence of toxicity; cited from earlier work
[3] = tested on: skin of SKH1 hairless mice; experiment: Sunburn (erythema) prevention by terpenes with solar-spectrum UVR exposure; assay type: in vivo, mouse; details: 4 daily 30 microL droplets before 15 minute exposure to 3.0 kJ/m2 UVR
Protocol: All experiments were performed with female hairless mice (SKH1) utilizing solar spectrum ultraviolet radiation (UVR). Each experiment was performed in triplicate including controls and UVR-exposed mice and included a total of 22 mice per experiment for a total of 66 mice. The protocol included untreated mice, UVR-irradiated mice as controls for the terpene treatments, UVR+terpene mice and terpene-only mice.
Four solar simulating FS-20 fluorescent lamps were used to deliver 3 kJ/m^2 measured by a calibrated International Light UV radiometer at the lamp distance between 20 to 24 cm. The UVR dose was selected to be just above the minimal erythemal dose for producing a ‘sunburn’ reaction in mouse skin (this is very similar to the minimal erythemal dose of fair-skinned humans).
Each terpene was given to each mouse per os (by mouth) in 15-30 μL droplets (˜15-30 μg) via micropipette once each day for 4 consecutive days prior to and/or subsequent to UVR exposure. Animals were observed and photographed every 24 hours for a period of 6-7 days after the irradiation. Each terpene was administered in pure form. […] The UVR exposure of 3 kJ/m^2 was delivered seven (7) days after the last dose was administered. The animals were observed and photographed. […] Liponeate, a triglyceride fraction of coconut oil was used as a diluent. Concentration 1, 10 and 100% were tested. […]

[4] = tested on: epidermis (keratinocytes, keratin layer) of SKH1 hairless mice; experiment: Histology of skin after terpene pre-feed and UVR; assay type: in vivo, mouse; details: for keratinocyte formation: ingestion, animal models
Protocol: Histopathological diagnosis was performed on the skin samples.
Animals for the histology and microarray analysis were euthanized 24 hours after 4 days of terpene pre-feed and the UVR exposure. Tissue samples from skin and other organs were frozen and prepared for histological diagnosis and for microarray analysis, which consisted of testing gene expression by utilizing Affymetrix mouse microarray chips containing about 39,000 transcripts with 45,101 probe sets.

[5] = tested on: gene expression in mouse dorsal skin; experiment: Affymetrix gene expression microarray of mouse skin after terpene and UVR; assay type: in vivo; details: for loricrin and vascular endothelial growth factor (VEGF) genes / matrix metalloproteinases: ingestion, animal models; for inflammation genes induced by UVR: per os daily for 4 days in 30 microL droplets prior to irradiation
Protocol: Animals for the histology and microarray analysis were euthanized 24 hours after 4 days of terpene pre-feed and the UVR exposure.
Gene expression microarray analysis was performed as follows: RNA was extracted from a 0.1 g sample of mouse skin and an equal quantity of keratinocytes by using the TRIZOL reagent (Invitrogen, Carlsbad, Calif., USA) according to the manufacture's instructions and 200 μg of total RNA was used for the isolation of poly A+ mRNA by using Oligotex mRNA mini columns (QIAGEN, Valencia, Calif., USA). The final centrifugation was performed after the incubation with 1/10 volume of 3.0 M NaOAc, 2.5 volumes of ethanol and 1 μl glycogen (Boehringer Mannheim GmbH, Mannheim, Germany) at −20° C. overnight. Then the pellet was resuspended in diethylpyrocarbonate (DEPC)-treated water. RNA was labeled with biotin and hybridized to a Mouse genome 430—2 GeneChip® microarray (Affymetrix, Inc. Santa Clara, Calif., USA). Data from the Affymetrix mouse expression array chip were imported into the BRB-ArrayTools Version 3.3.0 developed by the Biometric Research Branch of the U.S. National Cancer Institute for normalization and analysis. […] A value of P≦0.001 was chosen as statistically significant. […] For these calculations the entire list of genes on the Affymetrix (mouse 430—2) microarray was used as the reference list.
Mice were treated with either UVR or UVR+beta-damascenone, and samples of tissue were removed from the dorsal skin for RNA extraction and analysis on an Affymetrix Microarray System utilizing mouse whole genome array chips Affy 430—2. The UVR sample served as the control in this preliminary experiment.

[6] = at concentrations in normal strength grapefruit juice (approximately 0.0035%, or 35 ppm); cited from earlier work
[7] = in vivo; cited from earlier work
[8] = tested on: skin; details: mouse, in vivo; cited from earlier work
[9] = tested on: skin; details: guinea pig, in vivo; cited from earlier work
[10] = tested on: skin; details: in vivo; cited from earlier work
[11] = tested on: skin; details: in vivo; cited from earlier work; remark: listed apart in the source
[12] = tested on: UVB-induced non-melanoma tumors; details: mouse, in vivo; cited from earlier work
[13] = tested on: melanoma cells; details: topical pretreatment but not post-treatment; cited from earlier work
[14] = tested on: colon cancer; details: rats, 8 mg/kg, p<0.01; cited from earlier work
[15] = tested on: inflammation-relevant gene expression in rat skin; details: cited from earlier work

## CC(C)=CCC/C(C)=C/CO [Geraniol]
[1]
  effectiveness against tumor growth relative to perillyl alcohol: about 5 fold

## C=C(C)[C@H]1CC=C(C)CC1 [d-limonene]
[2]
  initiation of breast cancer: almost completely prevented

## C=C(C)[C@@H]1CCC2=CC(=O)C[C@@H](C)[C@]2(C)C1 [nootkatone]
[3]
  cutaneous inflammation and erythema associated with UVR exposure: blocked
[4]
  keratinocyte formation: increased keratinocyte formation
[5]
  loricrin and vascular endothelial growth factor (VEGF) genes: upregulation
  matrix metalloproteinases: downregulation
  inflammation genes induced by UVR: blocked
[6]
  toxicity: does not appear to be toxic

## C/C=C/C(=O)C1=C(C)C=CCC1(C)C [beta-damascenone]
[3]
  cutaneous inflammation and erythema associated with UVR exposure: blocked
[4]; histological observations
  keratinizing layer in the epidermis, terpene+UVR in comparison to UVR: greatly increased
[4]
  keratinocyte formation: increased keratinocyte formation
[5]; UVR+terpene relative to UVR only, p<0.05
  significantly altered up-regulated category at level 4 of the Gene Ontology Tree: epidermal cell differentiation
[5]
  loricrin and vascular endothelial growth factor (VEGF) genes: upregulation
  matrix metalloproteinases: downregulation
  inflammation genes induced by UVR: blocked
[5]; terpene+UVR relative to UVR only
  inflammation-relevant genes: strongly down-regulated
[5]; terpene+UVR relative to UVR only, p<0.05
  number of gene categories significantly down-regulated: 13 categories
[7]
  LD50: greater than 2.0 g/kg
[8]
  skin irritation: No skin irritation
[9]
  skin irritation: No skin irritation
[10]
  skin irritation: No skin irritation
[11]
  phototoxicity or photoallergenity: No phototoxicity or photoallergenity

## C=C(C)[C@@H]1CC=C(CO)CC1 [perillyl alcohol]
[2]
  initiation of breast cancer: almost completely prevented
[12]
  UVB-induced non-melanoma tumors: reduction
[13]
  levels of UV-induced reactive oxygen species: markedly reduced

## Oc1ccc(C=Cc2cc(O)cc(O)c2)cc1 [resveratrol]
[14]
  inhibition of colon cancer: 67%

## vitamin A
[15]
  inflammation-relevant gene expression alterations caused by x-rays blocked: about 80%
[15]; unirradiated controls
  gene expression in controls: no effect
